# From patent US5705170A, “Herbal cellulite treatments” (priority 1995, dated 1998)
# Tests used:
# cAMP = cAMP level (elevation of cAMP); format: cell-based, human
# [1] = tested on: isolated adipocytes (adipocyte α2-receptors); assay: Inhibition of adipocyte lipid synthesis (lipogenesis); format: cell-based
# Text: The results obtained are reported below in Table 2.
# [2] = tested on: adipocytes isolated from the thigh area of volunteers (adipocyte β receptors); assay: Lipolysis stimulation by glycerin release in isolated adipocytes; format: cell-based, human; settings: for Concentration at maximum stimulation: lipolysis; for Emax: Homo sapiens, Adipocyte, read-out: Maximum stimulation (lipolysis)
# Procedure: Glycerin release was used as a parameter to quantify lipolysis in actively metabolism adipocytes isolated from the thigh area of volunteers and evaluate various ingredients for their ability to stimulate adipocyte β receptors. Refined, or purified Malvaceae extracts comprising preferred aqueous or lipophilic fractions as described above, and some known β-adrenergic stimulators used in anticellulite treatments, namely the xanthines aminophylline, caffeine and theophylline, were tested. Also tested, for comparative purposes, were a crude Hibiscus Abelmoschus extract and a herbal ingredient that has been used in anticellulite compositions, ivy extract.
# [3] = glycerin release, most effective concentration
SMILES,Elevation of cAMP (cAMP),Lipogenesis inhibition (in words) [1],Maximum inhibition of adipocyte fat [1],"Maximum stimulation (lipolysis) [2, 3]",Concentration at maximum stimulation [2],"Emax [2, 3]"
Cn1c(=O)c2[nH]cnc2n(C)c1=O [aminophylline],ns,No lipogenesis inhibition activity,none,54.0%,1.00 mg/mL,
Cn1c(=O)c2c(ncn2C)n(C)c1=O [caffeine],ns,,,,2.00 mg/mL,51%
Cn1c(=O)c2[nH]cnc2n(C)c1=O [theophylline],ns,No lipogenesis inhibition activity,none,,1.00 mg/mL,45%
